Test results as given in patent US20140296266A1, “THERAPEUTIC COMPOUNDS” (Gilead Sciences, Inc., priority 2013, published 2014).

Columns and labels:
HIV-IIIb = test: Test A: Antiviral Assay in MT4 Cells; assay type: cell-based, HIV-1; settings: MT-4 cells mixed with HIV-IIIb (m.o.i. 0.003), 5 days, CellTiter-Glo, calculated from the dose response curve; for inhibition at 2 µM: Human immunodeficiency virus 1, IIIB, MT4, 120 h, read-out: % inhibition at 2 μM (percent inhibition of virus-induced cell killing), 2 μM drug concentration
Experimental: (§1) For the antiviral assay, 40 μL of 1× test concentration of 3-fold serially diluted compound in culture medium with 10% FBS was added to each well of a 384-well plate (10 concentrations) in quadruplicate. MT-4 cells were next mixed with HIV-IIIb at an m.o.i of 0.003 for 1 hour, after which time 35 μL of virus/cell mixture (2000 cells) was immediately added to each well containing 40 μL of diluted compound. The plates were then incubated at 37° C. for 5 days. After 5 days of incubation, 25 μl of 2× concentrated CellTiter-Glo™ Reagent (catalog #G7571, Promega Biosciences, Inc., Madison, Wis.) was added to each well containing MT-4 cells. Cell lysis was carried out by incubating at room temperature for 10 min and then chemiluminescence was read.

[1] = Test B: Cytotoxicity Assay; assay type: cell-based; settings: human, uninfected MT-4 cells, same protocol as Test A, CellTiter-Glo
Experimental: as §1
Compound cytotoxicity and the corresponding CC50 values was determined using the same protocol as described in the antiviral assay (Test A) except that uninfected cells were used.

Row | Compound | inhibition at 2 µM (HIV-IIIb) | CC50 at 5 days [1] | % inhibition at 2 μM (percent inhibition of virus-induced cell killing) (HIV-IIIb; 2 μM drug concentration)
1 | CC(C)(O)C#Cc1ccc(-c2ccc3c(c2)C(=O)NC3)c([C@H](Cc2cc(F)cc(F)c2)NC(=O)Cn2nc(C(F)F)c3c2C(F)(F)CCC3(F)F)n1 [Compound 9B, (S)-2-(3-(difluoromethyl)-4,4,7,7-tetrafluoro-4,5,6,7-tetrahydro-1H-indazol-1-yl)-N-(2-(3,5-difluorophenyl)-1-(6-(3-hydroxy-3-methylbut-1-yn-1-yl)-3-(3-oxoisoindolin-5-yl)pyridin-2-yl)ethyl)acetamide] | 95% | 14.6 µM | 
2 | CC(C)(O)C#Cc1ccc(-c2cccc3c2CNC3=O)c([C@H](Cc2cc(F)cc(F)c2)NC(=O)Cn2nc(C(F)(F)F)c3c2C(F)(F)[C@@H]2C[C@H]32)n1 [Compound 14E, 2-((3bS,4aR)-5,5-difluoro-3-(trifluoromethyl)-3b,4,4a,5-tetrahydro-1H-cyclopropa[3,4]cyclopenta[1,2-c]pyrazol-1-yl)-N—((S)-2-(3,5-difluorophenyl)-1-(6-(3-hydroxy-3-methylbut-1-yn-1-yl)-3-(1-oxoisoindolin-4-yl)pyridin-2-yl)ethyl)acetamide] | 89% | 6.82 µM | 
3 | CC(C)(O)C#Cc1ccc(-c2cccc3c(=O)[nH]cnc23)c([C@H](Cc2cc(F)cc(F)c2)NC(=O)Cn2nc(C(F)(F)F)c3c2C(F)(F)[C@@H]2C[C@H]32)n1 [Compound 2, 2-((3bS,4aR)-5,5-difluoro-3-(trifluoromethyl)-3b,4,4a,5-tetrahydro-1H-cyclopropa[3,4]cyclopenta[1,2-c]pyrazol-1-yl)-N—((S)-2-(3,5-difluorophenyl)-1-(6-(3-hydroxy-3-methylbut-1-yn-1-yl)-3-(4-oxo-3,4-dihydroquinazolin-8-yl)pyridin-2-yl)ethyl)acetamide] | 90% | 14.3 µM | 
4 | CC(C)(O)C#Cc1ccc(-c2ccc3c(c2)C(=O)NC32CC2)c([C@H](Cc2cc(F)cc(F)c2)NC(=O)Cn2nc(C(F)(F)F)c3c2C(F)(F)[C@@H]2C[C@H]32)n1 [Compound 3D, 2-((3bS,4aR)-5,5-difluoro-3-(trifluoromethyl)-3b,4,4a,5-tetrahydro-1H-cyclopropa[3,4]cyclopenta[1,2-c]pyrazol-1-yl)-N—((S)-2-(3,5-difluorophenyl)-1-(6-(3-hydroxy-3-methylbut-1-yn-1-yl)-3-(3′-oxospiro[cyclopropane-1,1′-isoindolin]-5′-yl)pyridin-2-yl)ethyl)acetamide] | 82% | 4.15 µM | 
5 | NC(=O)c1ccc(-c2cnc3[nH]ccc3c2)c([C@H](Cc2cc(F)cc(F)c2)NC(=O)Cn2nc(C(F)F)c3c2C(F)(F)CCC3(F)F)n1 [Compound 1B, (S)-6-(1-(2-(3-(difluoromethyl)-4,4,7,7-tetrafluoro-4,5,6,7-tetrahydro-1H-indazol-1-yl)acetamido)-2-(3,5-difluorophenyl)ethyl)-5-(1H-pyrrolo[2,3-b]pyridin-5-yl)picolinamide] | 77% | 8.57 µM | 
6 | O=C(Cn1nc(C(F)F)c2c1C(F)(F)CCC2(F)F)N[C@@H](Cc1cc(F)cc(F)c1)c1nc(-c2cc[nH]c(=O)c2)ccc1-c1cc[nH]c(=O)c1 [Compound 13, (S)-2-(3-(difluoromethyl)-4,4,7,7-tetrafluoro-4,5,6,7-tetrahydro-1H-indazol-1-yl)-N-(2-(3,5-difluorophenyl)-1-(2,2″-dioxo-1,1″,2,2″-tetrahydro-[4,2′:5′,4″-terpyridin]-6′-yl)ethyl)acetamide] | 0% | > 53.2 µM | 
7 | O=C(Cn1nc(C(F)F)c2c1C(F)(F)CCC2(F)F)N[C@@H](Cc1cc(F)cc(F)c1)c1nc(-c2ccc3c(c2)C(=O)NC3)ccc1-c1ccc2c(c1)C(=O)NC2 [Compound 6, (S)—N-(1-(3,6-bis(3-oxoisoindolin-5-yl)pyridin-2-yl)-2-(3,5-difluorophenyl)ethyl)-2-(3-(difluoromethyl)-4,4,7,7-tetrafluoro-4,5,6,7-tetrahydro-1H-indazol-1-yl)acetamide] | 73% | > 53.2 µM | 
8 | CC(C)(O)C#Cc1cnc([C@H](Cc2cc(F)cc(F)c2)NC(=O)Cn2nc(C(F)F)c3c2C(F)(F)CCC3(F)F)c(-c2ccc3c(c2)C(=O)NC3)c1 [Compound 4H, (S)-2-(3-(difluoromethyl)-4,4,7,7-tetrafluoro-4,5,6,7-tetrahydro-1H-indazol-1-yl)-N-(2-(3,5-difluorophenyl)-1-(5-(3-hydroxy-3-methylbut-1-ynyl)-3-(3-oxoisoindolin-5-yl)pyridin-2-yl)ethyl)acetamide] | 74% | 22.8 µM | 
9 | O=C(Cn1nc(C(F)F)c2c1C(F)(F)CCC2(F)F)N[C@@H](Cc1cc(F)cc(F)c1)c1ncc(-c2ccc3c(c2)C(=O)NC3)cc1-c1ccc2c(c1)C(=O)NC2 [Compound 10B, (S)—N-(1-(3,5-bis(3-oxoisoindolin-5-yl)pyridin-2-yl)-2-(3,5-difluorophenyl)ethyl)-2-(3-(difluoromethyl)-4,4,7,7-tetrafluoro-4,5,6,7-tetrahydro-1H-indazol-1-yl)acetamide] | 85% | > 53.2 µM | 
10 | O=C(Cn1nc(C(F)F)c2c1C(F)(F)CCC2(F)F)N[C@@H](Cc1cc(F)cc(F)c1)c1nc(-c2cnc3[nH]ccc3c2)ccc1-c1cnc2[nH]ccc2c1 [Compound 7, (S)—N-(1-(3,6-bis(1H-pyrrolo[2,3-b]pyridin-5-yl)pyridin-2-yl)-2-(3,5-difluorophenyl)ethyl)-2-(3-(difluoromethyl)-4,4,7,7-tetrafluoro-4,5,6,7-tetrahydro-1H-indazol-1-yl)acetamide] | 92% | 5.66 µM | 
11 | CC(C)(O)C#Cc1ccc(-c2ccc(F)c(C(N)=O)c2)c([C@H](Cc2cc(F)cc(F)c2)NC(=O)Cn2nc(C(F)(F)F)c3c2C(F)(F)[C@@H]2C[C@H]32)n1 [Compound 18, 5-(2-((S)-1-(2-((3bS,4aR)-5,5-difluoro-3-(trifluoromethyl)-3b,4,4a,5-tetrahydro-1H-cyclopropa[3,4]cyclopenta[1,2-c]pyrazol-1-yl)acetamido)-2-(3,5-difluorophenyl)ethyl)-6-(3-hydroxy-3-methylbut-1-yn-1-yl)pyridin-3-yl)-2-fluorobenzamide] |  | 6.93 µM | 
12 | NC(=O)c1cc(-c2ccc(-c3ccc(F)c(C(N)=O)c3)c([C@H](Cc3cc(F)cc(F)c3)NC(=O)Cn3nc(C(F)F)c4c3C(F)(F)CCC4(F)F)n2)ccc1F [Compound 5G, (S)-5,5′-(6-(1-(2-(3-(difluoromethyl)-4,4,7,7-tetrafluoro-4,5,6,7-tetrahydro-1H-indazol-1-yl)acetamido)-2-(3,5-difluorophenyl)ethyl)pyridine-2,5-diyl)bis(2-fluorobenzamide)] |  | > 53.2 µM | 
13 | O=C(Cn1nc(C(F)F)c2c1C(F)(F)CCC2(F)F)N[C@@H](Cc1cc(F)cc(F)c1)c1nc(-c2cc[nH]c(=O)c2)ccc1-c1ccc2c(c1)C(=O)NC2 [Compound 12, (S)-2-(3-(difluoromethyl)-4,4,7,7-tetrafluoro-4,5,6,7-tetrahydro-1H-indazol-1-yl)-N-(2-(3,5-difluorophenyl)-1-(2′-oxo-5-(3-oxoisoindolin-5-yl)-1′,2′-dihydro-[2,4′-bipyridin]-6-yl)ethyl)acetamide] | 58% | > 53.2 µM | 
14 | O=C(Cn1nc(C(F)F)c2c1C(F)(F)CCC2(F)F)N[C@@H](Cc1cc(F)cc(F)c1)c1ncc(-c2cnc3[nH]ccc3c2)cc1-c1cnc2[nH]ccc2c1 [Compound 11, (S)—N-(1-(3,5-di(1H-pyrrolo[2,3-b]pyridin-5-yl)pyridin-2-yl)-2-(3,5-difluorophenyl)ethyl)-2-(3-(difluoromethyl)-4,4,7,7-tetrafluoro-4,5,6,7-tetrahydro-1H-indazol-1-yl)acetamide] | 66% | > 53.2 µM | 
15 | CC(C)(O)C#Cc1ccc(-c2cccc3c(=O)[nH]c(=O)[nH]c23)c([C@H](Cc2cc(F)cc(F)c2)NC(=O)Cn2nc(C(F)(F)F)c3c2C(F)(F)[C@@H]2C[C@H]32)n1 [Compound 17, 2-((3bS,4aR)-5,5-difluoro-3-(trifluoromethyl)-3b,4,4a,5-tetrahydro-1H-cyclopropa[3,4]cyclopenta[1,2-c]pyrazol-1-yl)-N—((S)-2-(3,5-difluorophenyl)-1-(3-(2,4-dioxo-1,2,3,4-tetrahydroquinazolin-8-yl)-6-(3-hydroxy-3-methylbut-1-ynyl)pyridin-2-yl)ethyl)acetamide] | 80% | 12.6 µM | 
16 | O=C(Cn1nc(C(F)F)c2c1C(F)(F)CCC2(F)F)N[C@@H](Cc1cc(F)cc(F)c1)c1nc(-c2c[nH]nn2)ccc1-c1cnc2[nH]ccc2c1 [Compound 16C] |  |  | 65%
17 | COc1cc(-c2ccc(-c3ccc4c(c3)C(=O)NC4)c([C@H](Cc3cc(F)cc(F)c3)NC(=O)Cn3nc(C(F)F)c4c3C(F)(F)CCC4(F)F)n2)ccn1 [Compound 8C, (S)-2-(3-(difluoromethyl)-4,4,7,7-tetrafluoro-4,5,6,7-tetrahydro-1H-indazol-1-yl)-N-(2-(3,5-difluorophenyl)-1-(2′-methoxy-5-(3-oxoisoindolin-5-yl)-[2,4′-bipyridin]-6-yl)ethyl)acetamide] | 86% | 22 µM | 
